{"source": "patent US6358885B1", "about": "“Substituted phenylheterocyclic herbicides” (Mississippi State University, priority 1992, dated 2002)", "key": {"barnyardgrass": {"test_system": "barnyardgrass", "experiment": "Test C flood test plant response rating 0 to 100", "format": "in vivo, Echinochloa crus-galli", "procedure,_shortened": "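Compounds in non-phytotoxic solvent applied preemergence to sandy loam one day after planting, postemergence at the 1–4 leaf stage, or to ~2.5 cm floodwater over silt loam.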"}, "duck salad": {"test_system": "duck salad", "experiment": "Test C flood test plant response rating 0 to 100", "format": "in vivo, Heteranthera limosa", "procedure,_shortened": "(§1)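 Compounds in non-phytotoxic solvent went onto sandy loam before emergence (seeded one day earlier) or onto plants at the one-to-four leaf stage. Duck salad was treated via flood water (~2.5 cm, maintained) over silt loam.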"}, "chickweed": {"test_system": "chickweed", "experiment": "Test B preemergence/postemergence greenhouse plant response rating 0 to 10", "format": "in vivo, Stellaria media", "conditions": "POSTEMERGENCE, 0 to 10 scale", "procedure,_shortened": "(§2)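 Both application timings were run together: seeds got compound preemergence, and established seedlings (two to eighteen cm) got it postemergence. Non-phytotoxic solvent carried the chemical. Ratings are visual, versus controls, at twelve to sixteen days.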"}, "giant foxtail": {"test_system": "giant foxtail", "experiment": "Test C preemergence/postemergence greenhouse plant response rating 0 to 100", "format": "in vivo, Setaria faberii", "conditions": "POSTEMERGENCE", "procedure,_shortened": "as §1"}, "sugar beet": {"test_system": "sugar beet", "experiment": "Test B preemergence/postemergence greenhouse plant response rating 0 to 10", "format": "in vivo, Beta vulgaris", "conditions": "0 to 10 scale", "procedure,_shortened": "as §2"}, "wild buckwheat": {"test_system": "wild buckwheat", "experiment": "Test B preemergence/postemergence greenhouse plant response rating 0 to 10", "format": "in vivo, Polygonum convolvulus", "conditions": "0 to 10 scale", "procedure,_shortened": "as §2"}, "velvetleaf": {"test_system": "velvetleaf", "experiment": "Test C preemergence/postemergence greenhouse plant response rating 0 to 100", "format": "in vivo, Abutilon theophrasti", "conditions": "POSTEMERGENCE", "procedure,_shortened": "as §1"}, "wild oat": {"test_system": "wild oat", "experiment": "Test C preemergence/postemergence greenhouse plant response rating 0 to 100", "format": "in vivo, Avena fatua", "conditions": "POSTEMERGENCE", "procedure,_shortened": "as §1"}, "cotton": {"test_system": "cotton", "experiment": "Test C preemergence/postemergence greenhouse plant response rating 0 to 100", "format": "in vivo, Gossypium hirsutum", "conditions": "POSTEMERGENCE", "procedure,_shortened": "as §1"}, "corn [1]": {"test_system": "corn", "experiment": "Test B preemergence/postemergence greenhouse plant response rating 0 to 10", "format": "in vivo, Zea mays", "conditions": "0 to 10 scale", "procedure,_shortened": "as §2"}, "morningglory": {"test_system": "morningglory", "experiment": "Test C preemergence/postemergence greenhouse plant response rating 0 to 100", "format": "in vivo, Ipomoea hederacea", "conditions": "POSTEMERGENCE", "procedure,_shortened": "as §1"}, "sorghum": {"test_system": "sorghum", "experiment": "Test C preemergence/postemergence greenhouse plant response rating 0 to 100", "format": "in vivo, Sorghum bicolor", "conditions": "POSTEMERGENCE", "procedure,_shortened": "as §1"}, "wheat": {"test_system": "wheat", "experiment": "Test C preemergence/postemergence greenhouse plant response rating 0 to 100", "format": "in vivo, Triticum aestivum", "conditions": "POSTEMERGENCE", "procedure,_shortened": "as §1"}, "bedstraw [2]": {"test_system": "bedstraw", "experiment": "Test C preemergence/postemergence greenhouse plant response rating 0 to 100", "format": "in vivo, Galium aparine", "conditions": "POSTEMERGENCE", "procedure,_shortened": "as §1"}, "bedstraw [3]": {"test_system": "bedstraw", "experiment": "Test B preemergence/postemergence greenhouse plant response rating 0 to 10", "format": "in vivo, Galium aparine", "conditions": "POSTEMERGENCE, 0 to 10 scale", "procedure,_shortened": "as §2"}, "corn [4]": {"test_system": "corn", "experiment": "Test C preemergence/postemergence greenhouse plant response rating 0 to 100", "format": "in vivo, Zea mays", "conditions": "POSTEMERGENCE", "procedure,_shortened": "as §1"}, "downy brome": {"test_system": "downy brome", "experiment": "Test C preemergence/postemergence greenhouse plant response rating 0 to 100", "format": "in vivo, Bromus tectorum", "conditions": "POSTEMERGENCE", "procedure,_shortened": "as §1"}, "[5]": {"conditions": "POSTEMERGENCE section, flood test, Rate 1 g/ha"}, "[6]": {"conditions": "Rate 16 g/ha, under POSTEMERGENCE head (flood test species)"}, "[7]": {"conditions": "flood test species listed under POSTEMERGENCE, 62 g/ha, 0 to 100 scale"}}, "data": [{"smiles": "C#CCN1C(=O)COc2cc(F)c(-c3nn4c(c3Cl)CCCC4)cc21", "note": "[Compound 34]", "values": [{"measurement": "Plant response rating (0 to 100), Barnyardgrass", "setting": "barnyardgrass; [5]", "result": 60}, {"measurement": "Plant response rating (0 to 100), Barnyardgrass", "setting": "barnyardgrass; Rate 4 g/ha, under POSTEMERGENCE head (flood test species)", "result": 75}, {"measurement": "Plant response rating (0 to 100), Barnyardgrass", "setting": "barnyardgrass; [6]", "result": 95}, {"measurement": "Plant response rating, Barnyardgrass", "setting": "barnyardgrass; [7]", "result": 100}, {"measurement": "Plant response rating (0 to 100), Duck salad", "setting": "duck salad; [5]", "result": 0}, {"measurement": "Plant response rating (0 to 100), Duck salad", "setting": "duck salad; POSTEMERGENCE section, flood test, Rate 4 g/ha", "result": 0}, {"measurement": "Plant response rating (0 to 100), Duck salad", "setting": "duck salad; [6]", "result": 0}, {"measurement": "Plant response rating Duck salad", "setting": "duck salad; [7]", "result": 40}, {"measurement": "Plant response rating, Chickweed", "setting": "chickweed; Rate 10 g/ha", "result": 10}, {"measurement": "Plant response rating, Chickweed", "setting": "chickweed; Rate 50 g/ha", "result": 10}, {"measurement": "Plant response rating, Giant foxtail", "setting": "giant foxtail; 62 g/ha, 0 to 100 scale", "result": 70}, {"measurement": "Plant response rating (0 to 100), Giant foxtail", "setting": "giant foxtail; Rate 1 g/ha", "result": 20}, {"measurement": "Plant response rating (0 to 100), Giant foxtail", "setting": "giant foxtail; Rate 4 g/ha", "result": 30}, {"measurement": "Plant response rating (0 to 100), Giant foxtail", "setting": "giant foxtail; Rate 16 g/ha", "result": 40}, {"measurement": "Plant response rating, Sugar beet", "setting": "sugar beet; POSTEMERGENCE, Rate 10 g/ha", "result": 10}, {"measurement": "Plant response rating, Sugar beet", "setting": "sugar beet; POSTEMERGENCE, Rate 50 g/ha", "result": 10}, {"measurement": "Plant response rating, Sugar beet", "setting": "sugar beet; PREEMERGENCE, Rate 50 g/ha", "result": 9}, {"measurement": "Plant response rating, Wild buckwheat", "setting": "wild buckwheat; POSTEMERGENCE, Rate 10 g/ha", "result": 10}, {"measurement": "Plant response rating, Wild buckwheat", "setting": "wild buckwheat; POSTEMERGENCE, Rate 50 g/ha", "result": 10}, {"measurement": "Plant response rating, Wild buckwheat", "setting": "wild buckwheat; PREEMERGENCE, Rate 50 g/ha", "result": 8}, {"measurement": "Plant response rating, Velvetleaf", "setting": "velvetleaf; 62 g/ha, 0 to 100 scale", "result": 100}, {"measurement": "Plant response rating (0 to 100), Velvetleaf", "setting": "velvetleaf; Rate 1 g/ha", "result": 100}, {"measurement": "Plant response rating (0 to 100), Velvetleaf", "setting": "velvetleaf; Rate 4 g/ha", "result": 100}, {"measurement": "Plant response rating (0 to 100), Velvetleaf", "setting": "velvetleaf; Rate 16 g/ha", "result": 100}, {"measurement": "Plant response rating, Wild oat", "setting": "wild oat; 62 g/ha, 0 to 100 scale", "result": 30}, {"measurement": "Plant response rating (0 to 100), Wild oat", "setting": "wild oat; Rate 1 g/ha", "result": 10}, {"measurement": "Plant response rating (0 to 100), Wild oat", "setting": "wild oat; Rate 4 g/ha", "result": 20}, {"measurement": "Plant response rating (0 to 100), Wild oat", "setting": "wild oat; Rate 16 g/ha", "result": 20}, {"measurement": "Plant response rating, Cotton", "setting": "cotton; 62 g/ha, 0 to 100 scale", "result": 100}, {"measurement": "Plant response rating (0 to 100), Cotton", "setting": "cotton; Rate 1 g/ha", "result": 100}, {"measurement": "Plant response rating (0 to 100), Cotton", "setting": "cotton; Rate 4 g/ha", "result": 100}, {"measurement": "Plant response rating (0 to 100), Cotton", "setting": "cotton; Rate 16 g/ha", "result": 100}, {"measurement": "Plant response rating, Corn", "setting": "corn [1]; POSTEMERGENCE, Rate 10 g/ha", "result": 4}, {"measurement": "Plant response rating, Corn", "setting": "corn [1]; POSTEMERGENCE, Rate 50 g/ha", "result": 4}, {"measurement": "Plant response rating, Corn", "setting": "corn [1]; PREEMERGENCE, Rate 50 g/ha", "result": 0}, {"measurement": "Plant response rating, Morningglory", "setting": "morningglory; 62 g/ha, 0 to 100 scale", "result": 100}, {"measurement": "Plant response rating (0 to 100), Morningglory", "setting": "morningglory; Rate 1 g/ha", "result": 60}, {"measurement": "Plant response rating (0 to 100), Morningglory", "setting": "morningglory; Rate 4 g/ha", "result": 100}, {"measurement": "Plant response rating (0 to 100), Morningglory", "setting": "morningglory; Rate 16 g/ha", "result": 100}, {"measurement": "Plant response rating, Sorghum", "setting": "sorghum; 62 g/ha, 0 to 100 scale", "result": 70}, {"measurement": "Plant response rating (0 to 100), Sorghum", "setting": "sorghum; Rate 1 g/ha", "result": 30}, {"measurement": "Plant response rating (0 to 100), Sorghum", "setting": "sorghum; Rate 4 g/ha", "result": 40}, {"measurement": "Plant response rating (0 to 100), Sorghum", "setting": "sorghum; Rate 16 g/ha", "result": 50}, {"measurement": "Plant response rating, Wheat", "setting": "wheat; 62 g/ha, 0 to 100 scale", "result": 50}, {"measurement": "Plant response rating (0 to 100), Wheat", "setting": "wheat; Rate 1 g/ha", "result": 20}, {"measurement": "Plant response rating (0 to 100), Wheat", "setting": "wheat; Rate 4 g/ha", "result": 30}, {"measurement": "Plant response rating (0 to 100), Wheat", "setting": "wheat; Rate 16 g/ha", "result": 40}, {"measurement": "Plant response rating, Bedstraw", "setting": "bedstraw [2]; 62 g/ha, 0 to 100 scale", "result": 100}, {"measurement": "Plant response rating (0 to 100), Bedstraw", "setting": "bedstraw [2]; Rate 1 g/ha", "result": 30}, {"measurement": "Plant response rating (0 to 100), Bedstraw", "setting": "bedstraw [2]; Rate 4 g/ha", "result": 95}, {"measurement": "Plant response rating (0 to 100), Bedstraw", "setting": "bedstraw [2]; Rate 16 g/ha", "result": 100}, {"measurement": "Plant response rating, Bedstraw", "setting": "bedstraw [3]; Rate 10 g/ha", "result": 10}, {"measurement": "Plant response rating, Bedstraw", "setting": "bedstraw [3]; Rate 50 g/ha", "result": 10}, {"measurement": "Plant response rating, Corn", "setting": "corn [4]; 62 g/ha, 0 to 100 scale", "result": 50}, {"measurement": "Plant response rating (0 to 100), Corn", "setting": "corn [4]; Rate 1 g/ha", "result": 20}, {"measurement": "Plant response rating (0 to 100), Corn", "setting": "corn [4]; Rate 4 g/ha", "result": 30}, {"measurement": "Plant response rating (0 to 100), Corn", "setting": "corn [4]; Rate 16 g/ha", "result": 40}, {"measurement": "Plant response rating Downy Brome", "setting": "downy brome; 62 g/ha, 0 to 100 scale", "result": 50}, {"measurement": "Plant response rating (0 to 100), Downy Brome", "setting": "downy brome; Rate 1 g/ha", "result": 20}, {"measurement": "Plant response rating (0 to 100), Downy Brome", "setting": "downy brome; Rate 4 g/ha", "result": 30}, {"measurement": "Plant response rating (0 to 100), Downy Brome", "setting": "downy brome; Rate 16 g/ha", "result": 40}]}]}
